Assay results published in PMC6934184, “Selective DNA-PKcs inhibition extends the therapeutic index of localized radiotherapy and chemotherapy” (The Journal of Clinical Investigation, 2019).

Molecular target: T1, DAPK3 (ZIPK) (Homo sapiens, UniProt O43293)
T1 construct: purchased Thermo Fisher Scientific (Life Technologies) SelectScreen
Assay: SelectScreen Z'LYTE
Assay type: biochemical
Method in brief: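 Percent values come from Thermo SelectScreen profiling of NU5455, combining activity and binding assays. CSF1R was run in Z'LYTE format at Km app ATP, and CAMK1 in Adapta format with ATP listed at 10.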

T1 sequence (O43293 whole entry): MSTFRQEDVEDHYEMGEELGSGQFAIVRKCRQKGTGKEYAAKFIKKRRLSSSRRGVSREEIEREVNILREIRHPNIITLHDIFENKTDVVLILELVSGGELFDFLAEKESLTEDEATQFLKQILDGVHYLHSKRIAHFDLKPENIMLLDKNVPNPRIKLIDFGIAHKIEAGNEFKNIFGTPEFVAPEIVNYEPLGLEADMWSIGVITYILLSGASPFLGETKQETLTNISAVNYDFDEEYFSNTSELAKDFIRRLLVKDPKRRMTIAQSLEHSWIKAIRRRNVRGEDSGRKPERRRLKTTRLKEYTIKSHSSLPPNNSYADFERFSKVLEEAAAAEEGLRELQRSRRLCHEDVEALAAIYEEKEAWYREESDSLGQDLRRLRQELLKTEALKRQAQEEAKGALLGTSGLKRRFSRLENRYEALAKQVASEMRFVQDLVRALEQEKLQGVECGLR

## CN(C(=O)CN1CCOCC1)c1ccc2sc3c(-c4cccc5c(=O)cc(N6CC7CCC(C6)O7)oc45)cccc3c2c1 [NU5455]
  inhibition at 1 µM: -3.4%
